Data: ChEMBL document CHEMBL1201862, “PubChem BioAssay data set” (2004)
“And” between values parts separate entries of the source, which are not always exact repeats. Equal values may be shown once.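 Results reflect a 48-hour exposure of cells in 96-well plates to compound at five concentrations. GI50: concentration for 50% inhibition of growth.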 The source made the active and inactive calls. No stated cut-off is given here; in the data, active = GI50 up to about 1.1 µM and inactive = higher.

Experiments:
Test in all cases: NCI tumour cell line growth inhibition, 48 h
U-251 = system: U-251
NCI/ADR-RES = system: NCI/ADR-RES
HT-29 = system: HT-29
NCI-H522 = system: NCI-H522
HCC 2998 = system: HCC 2998
NCI-H23 = system: NCI-H23
SW-620 = system: SW-620
RPMI-8226 = system: RPMI-8226
LOX IMVI = system: LOX IMVI
BT-549 = system: BT-549
UACC-62 = system: UACC-62
786-0 = system: 786-0
SF-539 = system: SF-539
MDA-MB-435 = system: MDA-MB-435
SR = system: SR
CCRF-CEM = system: CCRF-CEM
MDA-N = system: MDA-N
Malme-3M = system: Malme-3M
TK-10 = system: TK-10

Row | Structure (SMILES) | GI50 (U-251) | GI50 (NCI/ADR-RES) | GI50 (HT-29) | GI50 (NCI-H522) | GI50 (HCC 2998) | GI50 (NCI-H23) | GI50 (SW-620) | GI50 (RPMI-8226) | GI50 (LOX IMVI) | GI50 (BT-549) | GI50 (UACC-62) | GI50 (786-0) | GI50 (SF-539) | GI50 (MDA-MB-435) | GI50 (SR) | GI50 (CCRF-CEM) | GI50 (MDA-N) | GI50 (Malme-3M) | GI50 (TK-10)
1 | COc1ccc(O)c(/C=N\Nc2ccccc2)c1 | 26.2 µM (inactive) | 18.6 µM (inactive) | 15.6 µM (inactive) | 2.32 µM (inactive) | < 0.01 µM (active) | 10.3 µM (inactive) | 5.41 µM (inactive) | 0.021 µM (active) | 2.44 µM (inactive) | 6.32 µM (inactive) | 2.6 µM (inactive) | 32.3 µM (inactive) | 12.2 µM (inactive) | 3.67 µM (inactive) |  |  |  |  | 
2 | O=C(Nc1ccc(Cl)cc1)c1cc2c(cc1Cl)Sc1nccn1S2(=O)=O | 10.7 µM (inactive) | 56.5 µM (inactive) | > 100 µM (inactive) | 57.1 µM (inactive) | 76.7 µM (inactive) |  | 27.5 µM (inactive) |  | > 100 µM (inactive) |  |  | 29.6 µM (inactive) | 50.2 µM (inactive) | 4.42 µM (inactive) | > 100 µM (inactive) | > 100 µM (inactive) | 28.8 µM (inactive) | 77.8 µM (inactive) | 
3 | N#C/C(C(=S)Nc1ccccc1)=C(/N)N1CCCC1 | > 100 µM (inactive) | > 100 µM (inactive) | > 100 µM (inactive) | > 100 µM (inactive) | > 100 µM (inactive) | > 100 µM (inactive) | > 100 µM (inactive) | > 100 µM (inactive) | > 100 µM (inactive) |  | > 100 µM (inactive) | > 100 µM (inactive) | > 100 µM (inactive) | > 100 µM (inactive) | > 100 µM (inactive) | > 100 µM (inactive) | > 100 µM (inactive) | > 100 µM (inactive) | > 100 µM (inactive)
4 | CC1=C2CN(C(=O)OCC(C)C)CCC2C2=C(C(=O)c3ccccc3C2=O)C1C (centres undefined) |  |  | > 10 µM (inactive) |  | > 10 µM (inactive) | 6.53 µM (inactive) | > 10 µM (inactive) | > 10 µM (inactive) | > 10 µM (inactive) |  | > 10 µM (inactive) | > 10 µM (inactive) |  | > 10 µM (inactive) | > 10 µM (inactive) | > 10 µM (inactive) | > 10 µM (inactive) | > 10 µM (inactive) | > 10 µM (inactive)
5 | CC1CC(N)=Nc2ccccc2N1Cc1ccccc1 (centres undefined) | 15.2 µM (inactive) | 15.1 µM (inactive) | 14.4 µM (inactive) | 12.7 µM (inactive) |  | 16.3 µM (inactive) | 12.6 µM (inactive) | 5 µM (inactive) |  | 13.3 µM (inactive) | 14.2 µM (inactive) | 29.4 µM (inactive) |  | 13.9 µM (inactive) |  | 12.4 µM (inactive) | 18 µM (inactive) | 2.22 µM (inactive) | 15 µM (inactive)
6 | Cc1ccc2c(=O)c(-c3nnc(NC4CCCCC4)s3)c[nH]c2n1 | > 100 µM (inactive) | > 100 µM (inactive) | > 100 µM (inactive) | > 100 µM (inactive) |  | > 100 µM (inactive) | > 100 µM (inactive) | > 100 µM (inactive) | > 100 µM (inactive) | > 100 µM (inactive) | > 100 µM (inactive) | > 100 µM (inactive) |  | > 100 µM (inactive) |  | > 100 µM (inactive) | 81.7 µM (inactive) | > 100 µM (inactive) | > 100 µM (inactive)
7 | Cc1cccc(/N=C/C=C(\Cl)c2ccc3ccccc3c2)c1 | 14.8 µM (inactive) | 17.7 µM (inactive) | 21.2 µM (inactive) | 32.6 µM (inactive) |  | 13.9 µM (inactive) | 9.46 µM (inactive) | 7.91 µM (inactive) | 2.79 µM (inactive) | 19.1 µM (inactive) | 15.1 µM (inactive) | 13.9 µM (inactive) | 17.8 µM (inactive) | 18.1 µM (inactive) | 3.88 µM (inactive) | 4.15 µM (inactive) |  | 17.1 µM (inactive) | 19.8 µM (inactive)
8 | CC1N(O)C(c2ccccc2)C(c2ccccc2)=[N+]1[O-] (centres undefined) | > 100 µM (inactive) | > 100 µM (inactive) | > 100 µM (inactive) |  | > 100 µM (inactive) | > 100 µM (inactive) | > 100 µM (inactive) |  | > 100 µM (inactive) | > 100 µM (inactive) | > 100 µM (inactive) | > 100 µM (inactive) | > 100 µM (inactive) |  | > 100 µM (inactive) | > 100 µM (inactive) | > 100 µM (inactive) | > 100 µM (inactive) | > 100 µM (inactive)
9 | CC(C)/C(Cl)=N\OC(=O)Nc1ccc(S(N)(=O)=O)cc1 | 19.5 µM (inactive) | 18.7 µM (inactive) | 22.4 µM (inactive) | 1.21 µM (inactive) | 18 µM (inactive) | 19.2 µM (inactive) | 1.86 µM (inactive) | 2.16 µM (inactive) | 2.89 µM (inactive) | 2.75 µM (inactive) | 17.9 µM (inactive) | 17.3 µM (inactive) | 16.8 µM (inactive) |  | 2.08 µM (inactive) | 1.75 µM (inactive) | 18.2 µM (inactive) | 4.59 µM (inactive) | 17.9 µM (inactive)
10 | COCC1OC([P+](c2ccccc2)(c2ccccc2)c2ccccc2)CC(OC)C1OC (centres undefined) | 35.6 µM (inactive) | > 100 µM (inactive) |  |  |  | 48.6 µM (inactive) | 35.5 µM (inactive) |  |  |  | 49.5 µM (inactive) | 53.2 µM (inactive) |  | 29.6 µM (inactive) | 17.4 µM (inactive) |  | 37.2 µM (inactive) | 33.9 µM (inactive) | 55.7 µM (inactive)
11 | CCOC(=O)/C=C/CC(C)(C)CCOC(C)=O | > 10 µM (inactive) | > 10 µM (inactive) | > 10 µM (inactive) | > 10 µM (inactive) | > 10 µM (inactive) | > 10 µM (inactive) | > 10 µM (inactive) | > 10 µM (inactive) | > 10 µM (inactive) |  | > 10 µM (inactive) | > 10 µM (inactive) | > 10 µM (inactive) | > 10 µM (inactive) | > 10 µM (inactive) | > 10 µM (inactive) | > 10 µM (inactive) |  | > 10 µM (inactive)
12 | Cc1cc(C)c(C(=O)C(C)C(c2ccccc2)c2ccc(Cl)cc2)c(C)c1 (centres undefined) | > 100 µM (inactive) |  | 34.4 µM (inactive) and 43.5 µM (inactive) |  |  | > 100 µM (inactive) and 60.7 µM (inactive) | > 100 µM (inactive) |  |  |  | > 100 µM (inactive) | > 100 µM (inactive) | > 100 µM (inactive) |  | 76.2 µM (inactive) and 64.6 µM (inactive) | 46.3 µM (inactive) and 67.5 µM (inactive) |  |  | > 100 µM (inactive)
13 | CCCN(CCC)c1c([N+](=O)[O-])cc(C(=O)N(CCO)CCO)cc1[N+](=O)[O-] | > 100 µM (inactive) |  | > 100 µM (inactive) | > 100 µM (inactive) | > 100 µM (inactive) | > 100 µM (inactive) |  | > 100 µM (inactive) |  |  |  | > 100 µM (inactive) | > 100 µM (inactive) |  |  | > 100 µM (inactive) |  | > 100 µM (inactive) | > 100 µM (inactive)
14 | O=[N+]([O-])c1cccc2nc3ccccc3c(NCCCCCNc3c4ccccc4nc4cccc([N+](=O)[O-])c34)c12 | 0.0368 µM (active) | 0.168 µM (active) | 0.0195 µM (active) | 0.0859 µM (active) | 0.0243 µM (active) | 0.0412 µM (active) | 0.0158 µM (active) | 0.00828 µM (active) | 0.168 µM (active) | 0.159 µM (active) | 0.153 µM (active) | 0.0157 µM (active) | 0.0304 µM (active) |  | 0.00271 µM (active) | 0.0518 µM (active) | 0.0536 µM (active) | 0.129 µM (active) | 0.0242 µM (active)
15 | CC1(C)CC(=O)C(=CNc2nc(-c3ccc(Br)cc3)cs2)C(=O)C1 | 30.6 µM (inactive) | 37.8 µM (inactive) | 29.9 µM (inactive) |  | 28.9 µM (inactive) | 25.8 µM (inactive) | 42.9 µM (inactive) |  | 20.9 µM (inactive) | 17.7 µM (inactive) |  | 25.5 µM (inactive) | 24.8 µM (inactive) | 25.6 µM (inactive) |  |  | 37.8 µM (inactive) |  | 11.5 µM (inactive)
16 | O=c1[nH]c2cc([N+](=O)[O-])c(Nc3c4ccccc4nc4ccccc34)c([N+](=O)[O-])c2[nH]1 | 3.58 µM (inactive) | 2.41 µM (inactive) | 1.98 µM (inactive) | 1.46 µM (inactive) | 1.73 µM (inactive) | 3.49 µM (inactive) | 2.31 µM (inactive) | 2.55 µM (inactive) | 2.37 µM (inactive) | 6.53 µM (inactive) | 1.6 µM (inactive) | 2.39 µM (inactive) | 3.28 µM (inactive) | 2.77 µM (inactive) | 1.74 µM (inactive) | 4.42 µM (inactive) |  | 1.77 µM (inactive) | 1.92 µM (inactive)
17 | S=c1nc(N/N=C/c2cccs2)c2cn[nH]c2[nH]1 | 25.1 µM (inactive) | 27.2 µM (inactive) | 29.5 µM (inactive) | 27.3 µM (inactive) | 10.1 µM (inactive) | 21.2 µM (inactive) | 37.1 µM (inactive) | 5.04 µM (inactive) | 25.5 µM (inactive) | > 100 µM (inactive) | 25.4 µM (inactive) | 27.9 µM (inactive) | 50.2 µM (inactive) | 16.3 µM (inactive) | 11.8 µM (inactive) |  |  | 41.4 µM (inactive) | 17.9 µM (inactive)
18 | CC(=N\c1ccncc1)/C(C)=N/c1ccncc1 | 24.5 µM (inactive) | 34.4 µM (inactive) | 19 µM (inactive) | 16.3 µM (inactive) | 19 µM (inactive) | 16.5 µM (inactive) | 30.8 µM (inactive) | 21.1 µM (inactive) | 19.5 µM (inactive) | 23.3 µM (inactive) |  | 34.7 µM (inactive) | 18.7 µM (inactive) | 29.2 µM (inactive) | 27.1 µM (inactive) | 25.8 µM (inactive) |  | 17.6 µM (inactive) | 35.8 µM (inactive)
